Assay results published in patent US5645995A, “Methods for diagnosing an increased risk for breast or ovarian cancer” (Baylor College of Medicine, priority 1996, dated 1997).
Where a chain is given by its changes, count along the chain named.

Assays:
[1] = target: T1, mutant human progesterone receptor (valine to leucine at amino acid 660) (Homo sapiens, UniProt P06401, V660L); test: Hormone-binding Whole Cell Assay with Scatchard analysis, COS cells expressing mutant receptor; conditions: COS cells infected with 250 ng receptor DNA, 50-6400 pM [3H]R5020 overnight, Scatchard analysis (FIG. 7B), read-out: dissociation constant
T1 construct: expressed in transfected cells; host or cells: COS cells (no endogenous progesterone receptor), pcDNAI/Amp vector
T1 sequence (P06401 1-933 V660L): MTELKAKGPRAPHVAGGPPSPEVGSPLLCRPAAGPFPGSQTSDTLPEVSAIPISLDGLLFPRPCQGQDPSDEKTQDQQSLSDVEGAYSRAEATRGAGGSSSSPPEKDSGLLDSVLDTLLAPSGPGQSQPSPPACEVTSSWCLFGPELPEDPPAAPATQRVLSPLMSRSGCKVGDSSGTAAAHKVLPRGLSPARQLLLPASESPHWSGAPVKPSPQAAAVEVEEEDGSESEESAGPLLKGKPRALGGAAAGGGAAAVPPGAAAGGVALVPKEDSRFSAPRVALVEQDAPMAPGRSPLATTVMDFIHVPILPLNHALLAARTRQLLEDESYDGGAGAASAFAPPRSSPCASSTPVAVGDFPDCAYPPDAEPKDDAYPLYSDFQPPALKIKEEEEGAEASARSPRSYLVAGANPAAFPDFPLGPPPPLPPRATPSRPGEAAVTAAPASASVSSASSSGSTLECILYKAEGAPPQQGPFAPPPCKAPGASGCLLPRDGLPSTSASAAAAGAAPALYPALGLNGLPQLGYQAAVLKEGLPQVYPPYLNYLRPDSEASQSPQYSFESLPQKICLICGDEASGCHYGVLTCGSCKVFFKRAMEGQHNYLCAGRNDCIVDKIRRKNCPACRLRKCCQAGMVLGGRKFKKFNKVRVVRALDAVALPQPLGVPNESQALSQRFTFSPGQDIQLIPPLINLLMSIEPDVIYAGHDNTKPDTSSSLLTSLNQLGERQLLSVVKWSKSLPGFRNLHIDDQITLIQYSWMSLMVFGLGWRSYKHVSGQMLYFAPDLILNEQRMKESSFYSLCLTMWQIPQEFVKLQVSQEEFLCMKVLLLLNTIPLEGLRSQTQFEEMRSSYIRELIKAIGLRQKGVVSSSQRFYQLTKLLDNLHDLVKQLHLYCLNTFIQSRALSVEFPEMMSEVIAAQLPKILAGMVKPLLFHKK
Method: (§1) To determine whether the increase in transcriptional activity found above was due to changes in hormone-binding affinity, hormone binding affinity was measured in a Whole Cell Assay, as described by Bai et al, Mol. Endo., 8(11):1465-1473 (1994), using DNA encoding both the mutant and wild-type progesterone receptor proteins.
(§2) More specifically, COS cells were infected with 250 ng of either mutant or wild-type receptor DNA, as described above, and the infected cells were incubated overnight in DME containing 5.0% (v/v) fetal calf serum and 50-6400 pM of [^3 H]R5020 (DuPont NEN, NET-555) before harvesting. Next, the harvested cells were subjected to ethanol extraction, and bound hormone was measured by CPM counting of the extracts.

[2] = target: T2, wild-type human progesterone receptor (Homo sapiens, UniProt P06401); test: Hormone-binding Whole Cell Assay with Scatchard analysis, COS cells expressing wild-type receptor; conditions: COS cells infected with 250 ng receptor DNA, 50-6400 pM [3H]R5020 overnight, Scatchard analysis (FIG. 7B), read-out: dissociation constant
T2 construct: expressed in transfected cells; host or cells: COS cells (no endogenous progesterone receptor), pcDNAI/Amp vector
T2 sequence (P06401 1-933): T1 sequence (P06401 1-933 V660L) with L660V
Method: as §1, §2

Kd [1]: 0.25 nM
Kd [2]: 0.25 nM
Structure (SMILES): CCC(=O)[C@@]1(C)CC[C@H]2[C@@H]3CCC4=CC(=O)CCC4=C3CC[C@@]21C [R5020]
